{"source": "patent US20170190671A1", "about": "“BIS(ARYL)CATECHOL DERIVATIVES AS HERBICIDES” (E I DU PONT DE NEMOURS AND COMPANY, priority 2014, published 2017)", "format_in_all_cases": "in vivo", "settings_in_all_cases": "scale 0 to 100", "key": {"[1]": {"test_system": "Russian thistle (Salsola kali)", "test": "Test D preemergence", "source_text": "(§1) Seeds of plant species selected from bluegrass (annual bluegrass, Poa annua), blackgrass (Alopecurus myosuroides), canarygrass (Phalaris minor), chickweed (common chickweed, Stellaria media), cutleaf geranium (Geranium dissectum), galium (catchweed bedstraw, Galium aparine), downy bromegrass (Bromus tectorum), field poppy (Papaver rhoeas), field violet (Viola arvensis), green foxtail (Setaria viridis), deadnettle (henbit deadnettle, Lamium amplexicaule), Italian ryegrass (Lolium multiflorum), kochia (Kochia scoparia), lambsquarters (Chenopodium album), oilseed rape (Brassica napus), pigweed (Amaranthus retroflexus), chamomile (scentless chamomile, Matricaria inodora), Russian thistle (Salsola kali), speedwell (bird's-eye speedwell, Veronica persica), spring barley (Hordeum vulgare), spring wheat (Triticum aestivum), wild buckwheat (Polygonum convolvulus), wild mustard (Sinapis arvensis), wild oat (Avenafatua), wild radish (Raphanus raphanistrum), windgrass (Apera spica-venti), winter barley (Hordeum vulgare), and winter wheat (Triticum aestivum) were planted into a silt loam soil and treated preemergence with test chemicals formulated in a non-phytotoxic solvent mixture which included a surfactant.\n(§2) At the same time, these species were planted in pots containing Redi-Earth® planting medium (Scotts Company, 14111 Scottslawn Road, Marysville, Ohio 43041) comprising spaghnum peat moss, vermiculite, wetting agent and starter nutrients and treated with postemergence applications of the test chemicals formulated in the same manner. Plants ranged in height from 2 to 18 cm (1- to 4-leaf stage). Treated plants and controls were maintained in a controlled growth environment for 14 to 21 days after which time all species were compared to controls and visually evaluated. Plant response ratings, summarized in Table D, are based on a scale of 0 to 100 where 0 is no effect and 100 is complete control. A dash (-) response means no test result."}, "[2]": {"test_system": "bluegrass (annual bluegrass, Poa annua)", "test": "Test D preemergence", "source_text": "as §1, §2"}, "[3]": {"test_system": "chickweed (common chickweed, Stellaria media)", "test": "Test D preemergence", "source_text": "as §1, §2"}, "[4]": {"test_system": "deadnettle (henbit deadnettle, Lamium amplexicaule)", "test": "Test D preemergence", "source_text": "as §1, §2"}, "[5]": {"test_system": "field violet (Viola arvensis)", "test": "Test D preemergence", "source_text": "as §1, §2"}, "[6]": {"test_system": "galium (catchweed bedstraw, Galium aparine)", "test": "Test D preemergence", "source_text": "as §1, §2"}, "[7]": {"test_system": "green foxtail (Setaria viridis)", "test": "Test D preemergence", "source_text": "as §1, §2"}, "[8]": {"test_system": "kochia (Kochia scoparia)", "test": "Test D preemergence", "source_text": "as §1, §2"}, "[9]": {"test_system": "oilseed rape (Brassica napus)", "test": "Test D preemergence", "source_text": "as §1, §2"}, "[10]": {"test_system": "pigweed (Amaranthus retroflexus)", "test": "Test D preemergence", "source_text": "as §1, §2"}, "[11]": {"test_system": "spring barley (Hordeum vulgare)", "test": "Test D preemergence", "source_text": "as §1, §2"}, "[12]": {"test_system": "spring wheat (Triticum aestivum)", "test": "Test D preemergence", "source_text": "as §1, §2"}, "[13]": {"test_system": "wild buckwheat (Polygonum convolvulus)", "test": "Test D preemergence", "source_text": "as §1, §2"}, "[14]": {"test_system": "windgrass (Apera spica-venti)", "test": "Test D preemergence", "source_text": "as §1, §2"}, "[15]": {"test_system": "winter wheat (Triticum aestivum)", "test": "Test D preemergence", "source_text": "as §1, §2"}, "[16]": {"test_system": "chickweed (common chickweed, Stellaria media)", "test": "Test D postemergence", "outline": "(§3)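 Visual injury scored 0–100 (0 = no effect, 100 = complete control) against controls 14 to 21 days after treatment in a controlled growth environment. Compounds were applied in surfactant-containing non-phytotoxic solvent, preemergence onto silt loam-sown seeds or postemergence onto 1- to 4-leaf plants.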"}, "[17]": {"test_system": "downy bromegrass (Bromus tectorum)", "test": "Test D postemergence", "outline": "as §3"}, "[18]": {"test_system": "speedwell (bird's-eye speedwell, Veronica persica)", "test": "Test D postemergence", "outline": "as §3"}}}
{"molecule": "Fc1cccc(Oc2ncc(C(F)(F)F)cn2)c1Oc1ncc(Cl)cn1", "note": "[Compound 42, 5-chloro-2-[2-fluoro-6-[[5-(trifluoromethyl)-2-pyrimidinyl]oxy]phenoxy]pyrimidine]", "values": [{"measurement": "Plant response rating, Russian Thistle", "setting": "[1]; 16 g ai/ha", "result": 0}, {"measurement": "Plant response rating, Russian Thistle", "setting": "[1]; 31 g ai/ha", "result": 20}, {"measurement": "Plant response rating, Russian Thistle", "setting": "[1]; 62 g ai/ha", "result": 15}, {"measurement": "Plant response rating, Russian Thistle", "setting": "[1]; 125 g ai/ha", "result": 55}, {"measurement": "Plant response rating, Bluegrass", "setting": "[2]; 16 g ai/ha", "result": 10}, {"measurement": "Plant response rating, Bluegrass", "setting": "[2]; 31 g ai/ha", "result": 0}, {"measurement": "Plant response rating, Bluegrass", "setting": "[2]; 62 g ai/ha", "result": 45}, {"measurement": "Plant response rating, Bluegrass", "setting": "[2]; 125 g ai/ha", "result": 90}, {"measurement": "Plant response rating, Chickweed", "setting": "[3]; 16 g ai/ha", "result": 70}, {"measurement": "Plant response rating, Chickweed", "setting": "[3]; 31 g ai/ha", "result": 100}, {"measurement": "Plant response rating, Chickweed", "setting": "[3]; 62 g ai/ha", "result": 100}, {"measurement": "Plant response rating, Chickweed", "setting": "[3]; 125 g ai/ha", "result": 100}, {"measurement": "Plant response rating, Deadnettle", "setting": "[4]; 16 g ai/ha", "result": 70}, {"measurement": "Plant response rating, Deadnettle", "setting": "[4]; 31 g ai/ha", "result": 85}, {"measurement": "Plant response rating, Deadnettle", "setting": "[4]; 62 g ai/ha", "result": 100}, {"measurement": "Plant response rating, Deadnettle", "setting": "[4]; 125 g ai/ha", "result": 100}, {"measurement": "Plant response rating, Field Violet", "setting": "[5]; 16 g ai/ha", "result": 25}, {"measurement": "Plant response rating, Field Violet", "setting": "[5]; 31 g ai/ha", "result": 100}, {"measurement": "Plant response rating, Field Violet", "setting": "[5]; 62 g ai/ha", "result": 100}, {"measurement": "Plant response rating, Field Violet", "setting": "[5]; 125 g ai/ha", "result": 100}, {"measurement": "Plant response rating, Galium", "setting": "[6]; 16 g ai/ha", "result": 65}, {"measurement": "Plant response rating, Galium", "setting": "[6]; 31 g ai/ha", "result": 70}, {"measurement": "Plant response rating, Galium", "setting": "[6]; 62 g ai/ha", "result": 100}, {"measurement": "Plant response rating, Galium", "setting": "[6]; 125 g ai/ha", "result": 100}, {"measurement": "Plant response rating, Foxtail, Green", "setting": "[7]; 16 g ai/ha", "result": 10}, {"measurement": "Plant response rating, Foxtail, Green", "setting": "[7]; 31 g ai/ha", "result": 60}, {"measurement": "Plant response rating, Foxtail, Green", "setting": "[7]; 62 g ai/ha", "result": 100}, {"measurement": "Plant response rating, Foxtail, Green", "setting": "[7]; 125 g ai/ha", "result": 100}, {"measurement": "Plant response rating, Kochia", "setting": "[8]; 16 g ai/ha", "result": 35}, {"measurement": "Plant response rating, Kochia", "setting": "[8]; 31 g ai/ha", "result": 65}, {"measurement": "Plant response rating, Kochia", "setting": "[8]; 62 g ai/ha", "result": 100}, {"measurement": "Plant response rating, Kochia", "setting": "[8]; 125 g ai/ha", "result": 100}, {"measurement": "Plant response rating, Oilseed Rape", "setting": "[9]; 16 g ai/ha", "result": 50}, {"measurement": "Plant response rating, Oilseed Rape", "setting": "[9]; 31 g ai/ha", "result": 70}, {"measurement": "Plant response rating, Oilseed Rape", "setting": "[9]; 62 g ai/ha", "result": 100}, {"measurement": "Plant response rating, Oilseed Rape", "setting": "[9]; 125 g ai/ha", "result": 100}, {"measurement": "Plant response rating, Pigweed", "setting": "[10]; 16 g ai/ha", "result": 100}, {"measurement": "Plant response rating, Pigweed", "setting": "[10]; 31 g ai/ha", "result": 100}, {"measurement": "Plant response rating, Pigweed", "setting": "[10]; 62 g ai/ha", "result": 100}, {"measurement": "Plant response rating, Pigweed", "setting": "[10]; 125 g ai/ha", "result": 100}, {"measurement": "Plant response rating, Barley, Spring", "setting": "[11]; 16 g ai/ha", "result": 0}, {"measurement": "Plant response rating, Barley, Spring", "setting": "[11]; 31 g ai/ha", "result": 35}, {"measurement": "Plant response rating, Barley, Spring", "setting": "[11]; 62 g ai/ha", "result": 15}, {"measurement": "Plant response rating, Barley, Spring", "setting": "[11]; 125 g ai/ha", "result": 65}, {"measurement": "Plant response rating, Wheat, Spring", "setting": "[12]; 16 g ai/ha", "result": 0}, {"measurement": "Plant response rating, Wheat, Spring", "setting": "[12]; 31 g ai/ha", "result": 0}, {"measurement": "Plant response rating, Wheat, Spring", "setting": "[12]; 62 g ai/ha", "result": 15}, {"measurement": "Plant response rating, Wheat, Spring", "setting": "[12]; 125 g ai/ha", "result": 65}, {"measurement": "Plant response rating, Buckwheat, Wild", "setting": "[13]; 16 g ai/ha", "result": 0}, {"measurement": "Plant response rating, Buckwheat, Wild", "setting": "[13]; 31 g ai/ha", "result": 0}, {"measurement": "Plant response rating, Buckwheat, Wild", "setting": "[13]; 62 g ai/ha", "result": 100}, {"measurement": "Plant response rating, Buckwheat, Wild", "setting": "[13]; 125 g ai/ha", "result": 100}, {"measurement": "Plant response rating, Windgrass", "setting": "[14]; 16 g ai/ha", "result": 15}, {"measurement": "Plant response rating, Windgrass", "setting": "[14]; 31 g ai/ha", "result": 60}, {"measurement": "Plant response rating, Windgrass", "setting": "[14]; 62 g ai/ha", "result": 90}, {"measurement": "Plant response rating, Windgrass", "setting": "[14]; 125 g ai/ha", "result": 100}, {"measurement": "Plant response rating, Wheat, Winter", "setting": "[15]; 16 g ai/ha", "result": 0}, {"measurement": "Plant response rating, Wheat, Winter", "setting": "[15]; 31 g ai/ha", "result": 0}, {"measurement": "Plant response rating, Wheat, Winter", "setting": "[15]; 62 g ai/ha", "result": 0}, {"measurement": "Plant response rating, Wheat, Winter", "setting": "[15]; 125 g ai/ha", "result": 50}, {"measurement": "Plant response rating, Chickweed", "setting": "[16]; 16 g ai/ha", "result": 65}, {"measurement": "Plant response rating, Chickweed", "setting": "[16]; 31 g ai/ha", "result": 65}, {"measurement": "Plant response rating, Chickweed", "setting": "[16]; 62 g ai/ha", "result": 85}, {"measurement": "Plant response rating, Chickweed", "setting": "[16]; 125 g ai/ha", "result": 90}, {"measurement": "Plant response rating, Bromegrass, Downy", "setting": "[17]; 16 g ai/ha", "result": 30}, {"measurement": "Plant response rating, Bromegrass, Downy", "setting": "[17]; 31 g ai/ha", "result": 35}, {"measurement": "Plant response rating, Bromegrass, Downy", "setting": "[17]; 62 g ai/ha", "result": 40}, {"measurement": "Plant response rating, Bromegrass, Downy", "setting": "[17]; 125 g ai/ha", "result": 60}, {"measurement": "Plant response rating, Speedwell", "setting": "[18]; 16 g ai/ha", "result": 40}, {"measurement": "Plant response rating, Speedwell", "setting": "[18]; 31 g ai/ha", "result": 50}, {"measurement": "Plant response rating, Speedwell", "setting": "[18]; 62 g ai/ha", "result": 80}, {"measurement": "Plant response rating, Speedwell", "setting": "[18]; 125 g ai/ha", "result": 80}]}
